As a reminder, the IC50 is the concentration at which inhibition is half-maximal.

One assay deals with T1, Endothelial lipase (EL) (Homo sapiens, UniProt Q9Y5X9).
T1 construct: HT-1080 cells that were transformed using RAGE technology (Athersys) to overexpress endogenous EL; endogenous in cells; conditioned medium used
T1 sequence (Q9Y5X9 21-500): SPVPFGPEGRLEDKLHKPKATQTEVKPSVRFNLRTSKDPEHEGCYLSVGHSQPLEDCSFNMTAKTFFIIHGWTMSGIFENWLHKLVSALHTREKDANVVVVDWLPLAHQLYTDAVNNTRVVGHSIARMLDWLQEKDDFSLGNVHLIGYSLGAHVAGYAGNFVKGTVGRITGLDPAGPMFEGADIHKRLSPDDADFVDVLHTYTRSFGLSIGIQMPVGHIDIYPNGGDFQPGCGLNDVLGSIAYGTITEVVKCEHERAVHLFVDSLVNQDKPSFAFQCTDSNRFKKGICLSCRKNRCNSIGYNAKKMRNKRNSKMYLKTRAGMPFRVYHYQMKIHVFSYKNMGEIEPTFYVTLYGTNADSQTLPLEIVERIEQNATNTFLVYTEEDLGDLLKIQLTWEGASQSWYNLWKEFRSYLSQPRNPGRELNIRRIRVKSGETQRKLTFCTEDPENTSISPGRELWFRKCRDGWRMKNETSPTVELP
Put plainly: Endothelial lipase (EL) enzymatic assay, fluorescent substrate A10070 in DMPG vesicles. Particulars: EL from conditioned media of HT-1080 cells; compound preincubated 30 min at 37° C; read-out: EL IC50. In kind it is biochemical. In short, it runs like this:
(§1)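 Compounds were preincubated with enzyme for 30 min at 37° C before FRET-substrate vesicles (A10070 in DMPG, 0.11 mole fraction) were added. Reaction rates were obtained from the 300–900 sec slope of fluorescence at 490/530 nm.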

For the next assay, the target named is T2, hepatic lipase (HL) (Homo sapiens, UniProt P11150).
T2 construct: made in house; host or cells: COS cells (conditioned medium, partially purified)
T2 sequence (P11150 23-499): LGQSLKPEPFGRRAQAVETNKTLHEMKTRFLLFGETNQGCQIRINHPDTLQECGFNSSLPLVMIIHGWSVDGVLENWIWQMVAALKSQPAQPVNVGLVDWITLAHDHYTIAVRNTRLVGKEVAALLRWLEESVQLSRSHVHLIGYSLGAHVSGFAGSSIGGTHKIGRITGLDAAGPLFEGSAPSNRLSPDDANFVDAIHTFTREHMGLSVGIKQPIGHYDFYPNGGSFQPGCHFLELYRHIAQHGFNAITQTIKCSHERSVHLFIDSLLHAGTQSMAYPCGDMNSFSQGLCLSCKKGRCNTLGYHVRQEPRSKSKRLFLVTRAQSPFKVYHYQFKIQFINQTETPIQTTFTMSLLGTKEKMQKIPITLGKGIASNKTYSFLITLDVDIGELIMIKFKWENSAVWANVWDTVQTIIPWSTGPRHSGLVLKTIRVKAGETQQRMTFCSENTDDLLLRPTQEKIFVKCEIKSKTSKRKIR
Put plainly: Hepatic lipase (HL) enzymatic assay, fluorescent substrate A10070 in DMPG vesicles. As to conditions: HL partially purified from conditioned media of COS cells; compound preincubated 30 min at 37° C; read-out: HL IC50. In kind it is biochemical. In short, it runs like this:
as §1

Consider `CC1(Cc2nnc(C(c3nc4ccc(-c5cccc(C(=O)NC6CC(F)(F)C6)c5)cc4s3)S(C)(=O)=O)o2)NC(=O)NC1=O` (centres unmarked) [Example 223, N-(3,3-difluorocyclobutyl)-3-{2-[methanesulfonyl({5-[(4-methyl-2,5-dioxo-imidazolidin-4-yl)methyl]-1,3,4-oxadiazol-2-yl})methyl]-1,3-benzothiazol-6-yl} benzamide], for which the IC50 stood at 32 nM at Endothelial lipase (EL) and 55 nM at hepatic lipase (HL).

Turning to `CS(=O)(=O)C(c1nnc(CNS(N)(=O)=O)o1)c1nc2ccc(-c3cccc(C(=O)N4CC(O)C4)c3)cc2s1` (centres unmarked) [Example 252, N-{[5-({6-[3-(3-hydroxyazetidine-1-carbonyl)phenyl]-1,3-benzothiazol-2-yl} (methanesulfonyl)methyl)-1,3,4-oxadiazol-2-yl]methyl}aminosulfonamide], the IC50 worked out at 10 nM on Endothelial lipase (EL) and 22 nM at hepatic lipase (HL).

On to `CC(C)(C)OC(=O)Cc1nnc(C(c2nc3ccc(-c4ccc(C(=O)N5CCOCC5)cc4)cc3s2)S(=O)(=O)Cc2ccccc2)o1` (centres unmarked) [Example 108, tert-butyl (5-((benzylsulfonyl)(6-(4-(4-morpholinylcarbonyl)phenyl)-1,3-benzothiazol-2-yl)methyl)-1,3,4-oxadiazol-2-yl)acetate], for which the figures for the IC50 at Endothelial lipase (EL) and on hepatic lipase (HL) were 24 nM and 14 nM, respectively.

`COCc1ccc(-c2ccc3nc(C(c4nnc(CNS(N)(=O)=O)o4)S(=O)(=O)Cc4ccc(C(F)(F)F)cc4)sc3c2)cc1` (centres unmarked) [Example 236, N-{[5-({6-[4-(methoxymethyl)phenyl]-1,3-benzothiazol-2-yl}[4-(trifluoromethyl)phenyl]meth-anesulfonylmethyl)-1,3,4-oxadiazol-2-yl]methyl} aminosulfonamide]: the IC50 on Endothelial lipase (EL) and on hepatic lipase (HL) was 1 nM in each case.

Regarding `NS(=O)(=O)NCc1nnc(C(c2nc3ccc(-c4ccc(Cl)c(F)c4)cc3s2)S(=O)(=O)Cc2ccccc2)o1` (centres unmarked) [Example 140, N-((5-((benzylsulfonyl)(6-(4-chloro-3-fluorophenyl)-1,3-benzothiazol-2-yl)methyl)-1,3,4-oxadiazol-2-yl)methy) sulfamide], the IC50 at Endothelial lipase (EL) and on hepatic lipase (HL) was under 10 nM in each case.

As to `COCc1ccc(-c2ccc3nc(C(c4nnc(CNS(N)(=O)=O)o4)S(=O)(=O)Cc4cc(C(F)(F)F)cc(C(F)(F)F)c4)sc3c2)cc1` (centres unmarked) [Example 234, N-[(5-{[3,5-bis(trifluoromethyl)phenyl]methanesulfonyl({6-[4-(methoxymethyl)phenyl]-1,3-benzothiazol-2-yl})methyl}-1,3,4-oxadiazol-2-yl)methyl]aminosulfonamide], the results for the IC50 on Endothelial lipase (EL) and on hepatic lipase (HL) were 4 nM and 17 nM, respectively.

Consider `NCCS(=O)(=O)C(c1nnc(CC2SC(=O)NC2=O)o1)c1nc2ccc(-c3ccccc3)cc2s1` (centres unmarked) [Example 184, 5-((5-(((2-aminoethyl)sulfonyl)(6-phenyl-1,3-benzothiazol-2-yl)methyl)-1,3,4-oxadiazol-2-yl)methyl)-1,3-thiazolidine-2,4-dione], for which the IC50 at Endothelial lipase (EL) and at hepatic lipase (HL) was under 10 nM each time.

On to `CC1(NC(=O)c2cccc(-c3ccc4nc(C(c5nnc(CC6(C)NC(=O)NC6=O)o5)S(C)(=O)=O)sc4c3)c2)CC1` (centres unmarked) [Example 224, 3-{2-[methanesulfonyl({5-[(4-methyl-2,5-dioxo-imidazolidin-4-yl)methyl]-1,3,4-oxadiazol-2-yl})methyl]-1,3-benzothiazol-6-yl}-N-(1-methylcyclopropyl) benzamide], for which the IC50 on Endothelial lipase (EL) worked out at 11 nM; at hepatic lipase (HL) it was 76 nM.

Take `CS(=O)(=O)C(c1nnc(CNS(N)(=O)=O)o1)c1nc2ccc(-c3cccc(C(=O)N4CCC(F)(F)CC4)c3)cc2s1` (centres unmarked) [Example 254, N-{[5-({6-[3-(4,4-difluoropiperidine-1-carbonyl)phenyl]-1,3-benzothiazol-2-yl} (methanesulfonyl)methyl)-1,3,4-oxadiazol-2-yl]methyl} aminosulfonamide]: the IC50 on Endothelial lipase (EL) was determined as 5 nM; at hepatic lipase (HL), 17 nM.

As for `NS(=O)(=O)NCc1nnc(C(c2nc3ccc(-c4cccc(C(=O)O)c4)cc3s2)S(=O)(=O)CCC(F)(F)F)o1` (centres unmarked) [Example 191, 3-(2-((5-((Sulfamoylamino)methyl)-1,3,4-oxadiazol-2-yl)((3,3,3-trifluoropropyl)sulfonyl)methyl)-1,3-benzothiazol-6-yl)benzoic acid], the IC50 on Endothelial lipase (EL) was 15 nM; at hepatic lipase (HL) it was 2670 nM.

As for `CS(=O)(=O)C(c1nnc(CNS(N)(=O)=O)o1)c1nc2ccc(-c3cccc(C(=O)N4CC(F)(F)C4)c3)cc2s1` (centres unmarked) [Example 251, N-{[5-({6-[3-(3,3-difluoroazetidine-1-carbonyl)phenyl]-1,3-benzothiazol-2-yl} (methanesulfonyl)methyl)-1,3,4-oxadiazol-2-yl]methyl} aminosulfonamide], the IC50 on Endothelial lipase (EL) was 9 nM; on hepatic lipase (HL), 21 nM.

On to `CC1(Cc2nnc(C(c3nc4ccc(-c5cccc(C(=O)N6CC[C@@H](F)C6)c5)cc4s3)S(C)(=O)=O)o2)NC(=O)NC1=O` (stereo partly drawn) [Example 232, 5-({5-[(6-{3-[(3R)-3-fluoropyrrolidine-1-carbonyl]phenyl}-1,3-benzothiazol-2-yl) (methanesulfonyl)methyl]-1,3,4-oxadiazol-2-yl}methyl)-5-methyl-imidazolidine-2,4-dione], for which the IC50 on Endothelial lipase (EL) is 1 nM; on hepatic lipase (HL), 54 nM.

Consider `NCCS(=O)(=O)C(c1nnc(CNS(N)(=O)=O)o1)c1nc2ccc(-c3ccccc3)cc2s1` (centres unmarked) [Example 187, N-[(5-{[(2-aminoethyl)sulfonyl](6-phenyl-1,3-benzothiazol-2-yl)methyl}-1,3,4-oxadiazol-2-yl)methyl] sulfuric diamide], for which the IC50 on Endothelial lipase (EL) was under 10 nM; on hepatic lipase (HL) it was 12 nM.

Turning to `NS(=O)(=O)NCc1nnc(C(c2nc3ccc(-c4ccc(Cl)c(Cl)c4)cc3s2)S(=O)(=O)Cc2ccccc2)o1` (centres unmarked) [Example 148, N-((5-((benzylsulfonyl)(6-(3,4-dichlorophenyl)-1,3-benzothiazol-2-yl)methyl)-1,3,4-oxadiazol-2-yl)methyl)sulfamide], the IC50 on Endothelial lipase (EL) and on hepatic lipase (HL) was under 10 nM throughout.

On to `NS(=O)(=O)NCc1nnc(C(c2nc3ccc(C(=O)N4CCOCC4)cc3s2)S(=O)(=O)Cc2ccccc2)o1` (centres unmarked) [Example 189, N-((5-((Benzylsulfonyl)(6-(4-morpholinylcarbonyl)-1,3-benzothiazol-2-yl)methyl)-1,3,4-oxadiazol-2-yl)methyl)sulfamide], for which the IC50 amounted to 13 nM on Endothelial lipase (EL) and 2370 nM at hepatic lipase (HL).

On to `COC(=O)CCS(=O)(=O)C(c1nnc(CC2SC(=O)NC2=O)o1)c1nc2cc(F)c(-c3ccccc3)cc2s1` (centres unmarked) [Example 161, methyl 3-(((5-((2,4-dioxo-1,3-thiazolidin-5-yl)methyl)-1,3,4-oxadiazol-2-yl)(5-fluoro-6-phenyl-1,3-benzothiazol-2-yl)methyl)sulfonyl)propanoate], for which the IC50 on Endothelial lipase (EL) and on hepatic lipase (HL) was under 10 nM throughout.

`CS(=O)(=O)C(c1nnc(CNS(N)(=O)=O)o1)c1nc2ccc(-c3cnn(CCN4CCOCC4)c3)cc2s1` (centres unmarked) [Example 132, N-((5-((methylsulfonyl)(6-(1-(2-(4-morpholinyl)ethyl)-1H-pyrazol-4-yl)-1,3-benzothiazol-2-yl)methyl)-1,3,4-oxadiazol-2-yl)methyl) sulfamide]: the IC50 is 32 nM on Endothelial lipase (EL) and 22300 nM at hepatic lipase (HL).

On to `CS(=O)(=O)C(c1nnc(CNS(N)(=O)=O)o1)c1nc2ccc(Br)cc2s1` (centres unmarked) [Example 114, N-((5-((6-bromo-1,3-benzothiazol-2-yl)(methylsulfonyl)methyl)-1,3,4-oxadiazol-2-yl)methyl) sulfamide], for which the figures for the IC50 at Endothelial lipase (EL) and at hepatic lipase (HL) were under 10 nM and 220 nM, respectively.

As to `CS(=O)(=O)C(c1nnc(CNS(N)(=O)=O)o1)c1nc2ccc(-c3cccc(C(=O)NC4CCC4)c3)cc2s1` (centres unmarked) [Example 261, N-cyclobutyl-3-{2-[methanesulfonyl({5-[(sulfamoylamino)methyl]-1,3,4-oxadiazol-2-yl})methyl]-1,3-benzothiazol-6-yl}benzamide], the IC50 came out at 3 nM at Endothelial lipase (EL) and 5 nM on hepatic lipase (HL).

Source of the values: US20140011799A1 (Bristol-Myers Squibb Company, priority 2012, published 2014).
